Experimental data reported in patent US20230391871A1, “MONOAMINE OXIDASE BLOCKADE THERAPY FOR TREATING CANCER THROUGH REGULATING TUMOR ASSOCIATED MACROPHAGES (TAMS)” (THE REGENTS OF THE UNIVERSITY OF CALIFORNIA, priority 2020, published 2023).

Experiments:
human TAMs = conditions: A375 + human monocytes s.c. in NSG mice; phenelzine 30 mg/kg/day i.p.; day 10
Method: (§1) FIG. 6: MAO-A blockade for cancer immunotherapy-human TAM and clinical data correlation studies. a, Studying the MAOA gene expression in human M1- and M2-like macrophages. A transcriptome data set (GSE35449) was analyzed using the prioritization function of a Tumour Immune Dysfunction and Exclusion (TIDE) computational method. Heatmaps are presented, showing the M2-like/M1-like mRNA fold change of MAOA gene as well as a selected group of immunosuppressive, immunostimulatory, and immune checkpoints signature genes. b-d, Studying the MAO-A expression in in vitro differentiated and IL-4/IL-13-polarized human monocyte-derived macrophages (MDMs: n=4). MDMs were generated by culturing healthy donor peripheral blood monocytes over 6 days, followed by stimulation with IL-4 and IL-13 for another 2 days. NC, no cytokine stimulation. (b,c) QPCR analyses of MAOA mRNA expression in MDMs over the 6-day MDM differentiation culture (b) and post the IL-4/IL-13-induced polarization (c). (d) Western blot analyses of MAO-A protein expression in IL-4/IL-13-polarized MDMs. e-g, Studying the in vitro polarization of human MDMs (n=3). MDMs were stimulated with IL-4/IL-13 for 2 days, in the presence or absence of phenelzine (Phe, 20 μM) treatment. NC, no cytokine stimulation: NT, no phenelzine treatment. (e) FACS analyses of CD206 expression on MDMs. (f,g) QPCR analyses ALOX15 (f) and (CD200R1 (g) mRNA expression in MDMs. h-j, Studying the in vivo polarization of human macrophages in a human Tumour-TAM Co-Inoculation xenograft mouse model (n=4). (h) Experimental design. FACS-sorted healthy donor peripheral blood monocytes were mixed with human A375 melanoma cells and s.c. injected into NSG mice to form solid tumours, with or without phenelzine treatment (Phe or NT). (i,j) FACS analyses of CD206 (i) and CD273 (j) expression on TAMs (gated as hCD45^+hCD11b^+hCD14^+ cells of total TIIs) isolated from experimental mice at day 10. k-m, Studying the in vitro efficacy of phenelzine in reprogramming human TAMs and enhancing human T cell antitumour reactivity (n=6). (k) Schematics showing an in vitro 3D human tumour/TAM/T cell organoid culture. A375-A2-ESO, human A375 melanoma cell line engineered to express an NY-ESO-1 tumour antigen as well as its matching HLA-A2 molecule: ESO-T, human peripheral blood CD8 T cells engineered to express an NY-ESO-1-specific TCR: Polarized TAM, human MDMs polarized in vitro with IL-4/IL-13 in the presence or absence of phenelzine treatment (denoted as TAM Phe or TAM NT, respectively). Cells were mixed and cultured as organoids for two days before analysis. (l,m) FACS quantification of live tumour cells (gated as hCD45^− cells) and ESO-T cells (gated as hCD45^+hCD8^+ESO-TCR^+ cells). n, QPCR analyses of MAOA mRNA expression in human TAMs isolated from ovarian cancer patient tumour samples (n=4). Monocytes isolated from random healthy donor peripheral blood were included as controls (n=10). Mo, monocyte. o-r, Clinical data correlation studies. The correlation function of a TIDE computational method was utilized. The association between the intratumoural MAOA gene expression levels and overall survival (OS) of cancer patients was computed through the two-sided Wald test in the Cox-PH regression. For each patient cohort, tumour samples were divided into the MAOA-high (samples with MAOA expression one standard deviation above the average) and MAOA-low (remaining samples) groups, followed by analysing the OS of each group. TIDE analyses of an ovarian cancer patient cohort (GSE26712, n=182: o), a lymphoma patient cohort (GSE10846, n=388: p), a breast cancers patient cohort (GSE9893, n=148: q), and a melanoma patient cohort with anti-PD-1 therapy (PRJEB23709, n=41: r). Representative of 1 (n), 2 (b-d, h-j) and 3 (e-g, k-m) experiments. All data are presented as the mean±SEM. ns, not significant, *P<0.05, **P<0.01, and ***P<0.001, by 1-way ANOVA (l, m), 2-way ANOVA (e-g), or by Student's t test (i, j, n).

[1] = test system: A375-A2-ESO tumour cells / ESO-T cells / polarized MDMs
Method: as §1

[2] = test system: human monocyte-derived macrophages (MDMs); conditions: phenelzine 20 μM, IL-4/IL-13 for 2 days
Method: as §1

[3] = ESO-T cells co-cultured with phenelzine-treated vs non-phenelzine-treated MDMs

In the case of `NNCCc1ccccc1` [phenelzine], the “CD206 expression on human TAMs (FACS)” value (human TAMs) is reported as “decreased expression”, the “CD273 expression on human TAMs (FACS)” value (human TAMs) is reported as “decreased expression” and the “immunosuppressive polarization of human TAMs in vivo” value (human TAMs) is reported as “effectively suppressed”. The “CD25 expression on ESO-T cells” value [1, 3] was “increased”, the “CD62L expression on ESO-T cells” value [1, 3] was “decreased” and the ESO-T cell number [1, 3] was “increased”. The “immunosuppressive effect of IL-4/IL-13-polarized MDMs on ESO-T cell-mediated killing of A375-A2-ESO tumour cells” value ([1]; phenelzine treatment during MDM polarization, organoid cultured 2 days) was “largely alleviated”, the “ALOX15 mRNA expression in MDMs (QPCR)” value [2] was “decreased expression” and the “CD200R1 mRNA expression in MDMs (QPCR)” value [2] was “decreased expression”. The “CD206 expression on MDMs (FACS)” value [2] was “decreased expression”, the “CD273 expression on MDMs (FACS)” value [2] was “decreased expression” and the “IL-4/IL-13-induced immunosuppressive polarization of MDMs” value [2] was “significantly inhibited”.
